According to US9849132B2, “Products and pharmaceutical compositions” (Intra-Cellular Therapies, Inc., priority 2014, dated 2017):

Target: PDE1 (3′,5′-cyclic-nucleotide-specific bovine brain phosphodiesterase)
Assay: Measurement of PDE1 inhibition in vitro using IMAP phosphodiesterase assay kit
Assay type: biochemical
Details: IMAP fluorescence polarization, FL-GMP substrate, bovine brain phosphodiesterase with calmodulin
From the text: Phosphodiesterase 1B (PDE1B) is a calcium/calmodulin dependent phosphodiesterase enzyme that converts cyclic guanosine monophosphate (cGMP) to 5′-guanosine monophosphate (5′-GMP). PDE1B can also convert a modified cGMP substrate, such as the fluorescent molecule cGMP-fluorescein, to the corresponding GMP-fluorescein. The generation of GMP-fluorescein from cGMP-fluorescein can be quantitated, using, for example, the IMAP (Molecular Devices, Sunnyvale, Calif.) immobilized-metal affinity particle reagent.
Briefly, the IMAP reagent binds with high affinity to the free 5′-phosphate that is found in GMP-fluorescein and not in cGMP-fluorescein. The resulting GMP-fluorescein—IMAP complex is large relative to cGMP-fluorescein. Small fluorophores that are bound up in a large, slowly tumbling, complex can be distinguished from unbound fluorophores, because the photons emitted as they fluoresce retain the same polarity as the photons used to excite the fluorescence.
In the phosphodiesterase assay, cGMP-fluorescein, which cannot be bound to IMAP, and therefore retains little fluorescence polarization, is converted to GMP-fluorescein, which, when bound to IMAP, yields a large increase in fluorescence polarization (Δmp). Inhibition of phosphodiesterase, therefore, is detected as a decrease in Δmp. […]
A decrease in GMP concentration, measured as decreased Δmp, is indicative of inhibition of PDE activity. […]

IC50: 0.105 nM
Structure (SMILES): CN1C(=O)c2c(nn(Cc3ccc(-c4ccccn4)cc3)c2Nc2ccccc2)N2C1=N[C@@H]1CCC[C@@H]12 [Example 1, (6aR,9aS)-5,6a,7,8,9,9a-hexahydro-5-methyl-3-(phenylamino)-2-((4-Pyridin-2yl)-benzyl)-cyclopent[4,5]imidazo[1,2-a]pyrazolo[4,3-e]pyrimidin-4(2H)-one]
